Test results published in ChEMBL document CHEMBL3885881, “DrugMatrix”.

Organism: Rattus norvegicus
Test: DrugMatrix - Regimen: Daily Repeat
Format: toxicity, organism-based, Sprague-Dawley
Set-up: regimen Daily Repeat, gender Male, age 6-8 weeks
Conditions: in vivo, po, route oral GAVAGE, vehicle 100 % WATER; for ABSOLUTE BASOPHIL / ABSOLUTE EOSINOPHIL / ABSOLUTE LYMPHOCYTE / ABSOLUTE MONOCYTE / ABSOLUTE SEGMENTED NEUTROPHIL / BASOPHIL / EOSINOPHIL / ERYTHROCYTE COUNT / HEMATOCRIT / HEMOGLOBIN / LEUKOCYTE COUNT / LYMPHOCYTE / MEAN CORPUSCULAR HEMOGLOBIN / MEAN CORPUSCULAR HEMOGLOBIN CONCENTRATION / MEAN CORPUSCULAR VOLUME / MONOCYTE / NEUTROPHIL / NUCLEATED RED BLOOD CELLS / PLATELET COUNT: tissue Blood; for ALANINE AMINOTRANSFERASE / ALBUMIN / ALKALINE PHOSPHATASE / ASPARTATE AMINOTRANSFERASE / BLOOD UREA NITROGEN / CARBON DIOXIDE / CHLORIDE / CHOLESTEROL / CREATINE PHOSPHOKINASE / CREATININE / GLUCOSE / LACTATE DEHYDROGENASE / LIPASE / PHOSPHORUS / POTASSIUM / SODIUM / TOTAL BILIRUBIN / TOTAL PROTEIN / URIC ACID: tissue Plasma
[1] = 300 mg/kg, 72 h, dose level Low, time 3 day
[2] = 300 mg/kg, 120 h, dose level Low, time 5 day
[3] = 1100 mg/kg, 72 h, dose level High, time 3 day
[4] = 1100 mg/kg, 120 h, dose level High, time 5 day

`O=C(O)CCNC(=O)c1ccc(/N=N/c2ccc(O)c(C(=O)O)c2)cc1` [BALSALAZIDE] was tested, and the “ABSOLUTE BASOPHIL” value [1] was 0 CELLS/uL, the “ABSOLUTE EOSINOPHIL” value [1] was 0 CELLS/uL and the “ABSOLUTE LYMPHOCYTE” value [1] was 11801 CELLS/uL. The “ABSOLUTE MONOCYTE” value [1] was 66 CELLS/uL, the “ABSOLUTE SEGMENTED NEUTROPHIL” value [1] was 833 CELLS/uL and the BASOPHIL [1] was 0%. For the same compound, the EOSINOPHIL [1] was 0%, the “ERYTHROCYTE COUNT” value [1] was 5.38 x10E6/uL and the HEMATOCRIT [1] was 33.73%. The HEMOGLOBIN [1] was 13.5 G/DL, the “LEUKOCYTE COUNT” value [1] was 12.7 x10E3/uL and the LYMPHOCYTE [1] was 93.33%. For the same compound, the “MEAN CORPUSCULAR HEMOGLOBIN” value [1] was 25.13 pg, the “MEAN CORPUSCULAR HEMOGLOBIN CONCENTRATION” value [1] was 40.03 G/DL and the “MEAN CORPUSCULAR VOLUME” value [1] was 62.7 fL. For the same compound, the MONOCYTE [1] was 0.33%, the NEUTROPHIL [1] was 6.33% and the “NUCLEATED RED BLOOD CELLS” value [1] was 0 /100WBC. The “PLATELET COUNT” value [1] was 922 x10E3/uL, the “ALANINE AMINOTRANSFERASE” value [1] was 56.33 u/L and the ALBUMIN [1] was 4.23 G/DL. The “ALKALINE PHOSPHATASE” value [1] was 481.33 u/L, the “ASPARTATE AMINOTRANSFERASE” value [1] was 94 u/L and the “BLOOD UREA NITROGEN” value [1] was 17.33 mg/dL. The “CARBON DIOXIDE” value [1] was 29 mmol/L, the CHLORIDE [1] was 103.67 MEQ/L and the CHOLESTEROL [1] was 73.33 mg/dL. The “CREATINE PHOSPHOKINASE” value [1] was 306.67 u/L, the CREATININE [1] was 0.22 mg/dL and the GLUCOSE [1] was 159.33 mg/dL. For the same compound, the “LACTATE DEHYDROGENASE” value [1] was 328 u/L, the LIPASE [1] was 8 u/L and the PHOSPHORUS [1] was 13.87 mg/dL. The POTASSIUM [1] was 6.3 MEQ/L, the SODIUM [1] was 144.33 MEQ/L and the “TOTAL BILIRUBIN” value [1] was 0.2 mg/dL. The “TOTAL PROTEIN” value [1] was 5.93 G/DL, the “URIC ACID” value [1] was 1.5 mg/dL and the “ABSOLUTE BASOPHIL” value [2] was 0 CELLS/uL. The “ABSOLUTE EOSINOPHIL” value [2] was 53.33 CELLS/uL, the “ABSOLUTE LYMPHOCYTE” value [2] was 8092.67 CELLS/uL and the “ABSOLUTE MONOCYTE” value [2] was 26.67 CELLS/uL. The “ABSOLUTE SEGMENTED NEUTROPHIL” value [2] was 694 CELLS/uL, the BASOPHIL [2] was 0% and the EOSINOPHIL [2] was 0.67%. For the same compound, the “ERYTHROCYTE COUNT” value [2] was 5.99 x10E6/uL, the HEMATOCRIT [2] was 38.2% and the HEMOGLOBIN [2] was 14.6 G/DL. For the same compound, the “LEUKOCYTE COUNT” value [2] was 8.87 x10E3/uL, the LYMPHOCYTE [2] was 91% and the “MEAN CORPUSCULAR HEMOGLOBIN” value [2] was 24.43 pg. For the same compound, the “MEAN CORPUSCULAR HEMOGLOBIN CONCENTRATION” value [2] was 38.2 G/DL, the “MEAN CORPUSCULAR VOLUME” value [2] was 63.9 fL and the MONOCYTE [2] was 0.33%. For the same compound, the NEUTROPHIL [2] was 8%, the “NUCLEATED RED BLOOD CELLS” value [2] was 0 /100WBC and the “PLATELET COUNT” value [2] was 965 x10E3/uL. For the same compound, the “ALANINE AMINOTRANSFERASE” value [2] was 61.67 u/L, the ALBUMIN [2] was 4.17 G/DL and the “ALKALINE PHOSPHATASE” value [2] was 384.67 u/L. The “ASPARTATE AMINOTRANSFERASE” value [2] was 83.67 u/L, the “BLOOD UREA NITROGEN” value [2] was 17.67 mg/dL and the “CARBON DIOXIDE” value [2] was 28.67 mmol/L. The CHLORIDE [2] was 102 MEQ/L, the CHOLESTEROL [2] was 63.33 mg/dL and the “CREATINE PHOSPHOKINASE” value [2] was 238.33 u/L. For the same compound, the CREATININE [2] was 0.22 mg/dL, the GLUCOSE [2] was 182.67 mg/dL and the “LACTATE DEHYDROGENASE” value [2] was 142.67 u/L. The LIPASE [2] was 12.33 u/L, the PHOSPHORUS [2] was 14.5 mg/dL and the POTASSIUM [2] was 6.43 MEQ/L. For the same compound, the SODIUM [2] was 146.73 MEQ/L, the “TOTAL BILIRUBIN” value [2] was 0.2 mg/dL and the “TOTAL PROTEIN” value [2] was 6.07 G/DL. The “URIC ACID” value [2] was 2.17 mg/dL, the “ABSOLUTE BASOPHIL” value [3] was 0 CELLS/uL and the “ABSOLUTE EOSINOPHIL” value [3] was 0 CELLS/uL. For the same compound, the “ABSOLUTE LYMPHOCYTE” value [3] was 7596 CELLS/uL, the “ABSOLUTE MONOCYTE” value [3] was 55 CELLS/uL and the “ABSOLUTE SEGMENTED NEUTROPHIL” value [3] was 682.33 CELLS/uL. For the same compound, the BASOPHIL [3] was 0%, the EOSINOPHIL [3] was 0% and the “ERYTHROCYTE COUNT” value [3] was 5.29 x10E6/uL. For the same compound, the HEMATOCRIT [3] was 33.57%, the HEMOGLOBIN [3] was 13.27 G/DL and the “LEUKOCYTE COUNT” value [3] was 8.33 x10E3/uL. The LYMPHOCYTE [3] was 91.33%, the “MEAN CORPUSCULAR HEMOGLOBIN” value [3] was 25.13 pg and the “MEAN CORPUSCULAR HEMOGLOBIN CONCENTRATION” value [3] was 39.5 G/DL. For the same compound, the “MEAN CORPUSCULAR VOLUME” value [3] was 63.47 fL, the MONOCYTE [3] was 0.67% and the NEUTROPHIL [3] was 8%. The “NUCLEATED RED BLOOD CELLS” value [3] was 0 /100WBC, the “PLATELET COUNT” value [3] was 833.67 x10E3/uL and the “ALANINE AMINOTRANSFERASE” value [3] was 62.67 u/L. For the same compound, the ALBUMIN [3] was 4.33 G/DL, the “ALKALINE PHOSPHATASE” value [3] was 344.33 u/L and the “ASPARTATE AMINOTRANSFERASE” value [3] was 98.67 u/L. The “BLOOD UREA NITROGEN” value [3] was 15 mg/dL, the “CARBON DIOXIDE” value [3] was 32.67 mmol/L and the CHLORIDE [3] was 101.67 MEQ/L. For the same compound, the CHOLESTEROL [3] was 84.33 mg/dL, the “CREATINE PHOSPHOKINASE” value [3] was 333 u/L and the CREATININE [3] was 0.49 mg/dL. The GLUCOSE [3] was 160.33 mg/dL, the “LACTATE DEHYDROGENASE” value [3] was 159 u/L and the LIPASE [3] was 12 u/L. For the same compound, the PHOSPHORUS [3] was 11.9 mg/dL, the POTASSIUM [3] was 5.97 MEQ/L and the SODIUM [3] was 145.53 MEQ/L. For the same compound, the “TOTAL BILIRUBIN” value [3] was 0.27 mg/dL, the “TOTAL PROTEIN” value [3] was 6.1 G/DL and the “URIC ACID” value [3] was 0.67 mg/dL. For the same compound, the “ABSOLUTE BASOPHIL” value [4] was 0 CELLS/uL, the “ABSOLUTE EOSINOPHIL” value [4] was 0 CELLS/uL and the “ABSOLUTE LYMPHOCYTE” value [4] was 12609 CELLS/uL. The “ABSOLUTE MONOCYTE” value [4] was 37.67 CELLS/uL, the “ABSOLUTE SEGMENTED NEUTROPHIL” value [4] was 1253.33 CELLS/uL and the BASOPHIL [4] was 0%. For the same compound, the EOSINOPHIL [4] was 0%, the “ERYTHROCYTE COUNT” value [4] was 5.68 x10E6/uL and the HEMATOCRIT [4] was 35.73%. For the same compound, the HEMOGLOBIN [4] was 14.1 G/DL, the “LEUKOCYTE COUNT” value [4] was 13.9 x10E3/uL and the LYMPHOCYTE [4] was 91.33%. The “MEAN CORPUSCULAR HEMOGLOBIN” value [4] was 24.87 pg, the “MEAN CORPUSCULAR HEMOGLOBIN CONCENTRATION” value [4] was 39.47 G/DL and the “MEAN CORPUSCULAR VOLUME” value [4] was 62.93 fL. The MONOCYTE [4] was 0.33%, the NEUTROPHIL [4] was 8.33% and the “NUCLEATED RED BLOOD CELLS” value [4] was 0 /100WBC. The “PLATELET COUNT” value [4] was 1338 x10E3/uL, the “ALANINE AMINOTRANSFERASE” value [4] was 55.33 u/L and the ALBUMIN [4] was 4 G/DL. For the same compound, the “ALKALINE PHOSPHATASE” value [4] was 346.67 u/L, the “ASPARTATE AMINOTRANSFERASE” value [4] was 106 u/L and the “BLOOD UREA NITROGEN” value [4] was 17.67 mg/dL. For the same compound, the “CARBON DIOXIDE” value [4] was 27 mmol/L, the CHLORIDE [4] was 104 MEQ/L and the CHOLESTEROL [4] was 55.33 mg/dL. The “CREATINE PHOSPHOKINASE” value [4] was 414 u/L, the CREATININE [4] was 0.14 mg/dL and the GLUCOSE [4] was 163.67 mg/dL. For the same compound, the “LACTATE DEHYDROGENASE” value [4] was 452.33 u/L, the LIPASE [4] was 10 u/L and the PHOSPHORUS [4] was 12.77 mg/dL. The POTASSIUM [4] was 6.29 MEQ/L, the SODIUM [4] was 144.53 MEQ/L and the “TOTAL BILIRUBIN” value [4] was 0.17 mg/dL. The “TOTAL PROTEIN” value [4] was 5.57 G/DL and the “URIC ACID” value [4] was 1.53 mg/dL.
